Experimental data from US20180066064A1, “BIOTHERAPEUTICS TARGETING GPR158 FOR CANCER” (University of Southern California, priority 2015, published 2018).

Assays:
[1] = system: lenti-GPR158 LNCaP cells; test: Cell counting of lenti-GPR158 LNCaP cells after Dox treatment; format: cell-based, human; details: Dox 100 ng/mL
[2] = system: GPR158 driven by a doxycycline inducible promoter; AR, PSA; test: Dox induction in lenti-GPR158 LNCaP cells (western blotting); format: cell-based, human
[3] = system: GPR158, AR and PSA expression in PHPECs; details: DHT 10 nM
Protocol: (§1) FIG. 2: Effects of an androgen on GPR158 expression. […] Total RNA (FIG. 2A-FIG. 2C) or cell lysates (FIG. 2E-FIG. 2G) were isolated and subjected to qRT-PCR and western blotting, respectively to estimate AR, PSA, GPR158 and beta-actin expression. […] Total RNA or the whole cell lysates were isolated and qRT-PCR and western blotting was performed, respectively to detect GPR158, AR, PSA and beta-actin levels (FIG. 2D) The mRNA level of the above indicated genes was considered 1 in cells grown in 10% FCS for calculating the relative fold difference of these genes in other experimental conditions. (FIG. 2A-FIG. 2H) The data represent three independent experiments.
(§2) For androgen starvation studies, LNCaP, PC-3, and DU145 cells were grown in 10% CSS.
(§3) Total RNA isolated from PCa cell lines with Aurum total RNA mini kit (Bio-Rad, Hercules, Calif.) was subjected to qRT-PCR analysis using iScript one-step RT-PCR kit with SYBR Green (Bio-Rad) on CFX96 Touch Real-Time PCR Detection System (Bio-Rad), according to the manufacturer's instructions. Relative quantification values of genes of interest were calculated as 2^−ΔΔCt by the comparative Ct method, where ΔΔCt=(Ct target mRNA of treated sample-Ct reference gene of treated sample)-(Ct target mRNA of control sample-Ct reference gene of control sample). The Inventors used beta-actin or GAPDH as a reference gene.
(§4) The whole cell lysates were prepared using radioimmunoprecipitation assay (RIPA) lysis buffer (50 mM Tris, 150 mM NaCl, 0.1% SDS, 0.5% Sodium Deoxycholate, 1% NP-40) spiked with a cocktail of protease inhibitors for 20 min, followed by centrifugation at 10,000 g for 10 min. Supernatants were collected and proteins in the extracts were separated by SDS-PAGE without boiling the samples and transferred to PVDF membranes. Membranes were probed with primary antibody against protein of interest and were developed by chemiluminescence with reagents Luminol enhancer solution and peroxide solution (GE Healthcare UK limited, Buckinghamshire, UK) and images were captured with Fujifilm imaging system (LAS-4000; Fujifilm, Tokyo, Japan). Protein loading was monitored by stripping and reprobing of the membrane with beta-actin antibody.

[4] = system: GPR158, AR and PSA expression in C4-2B cells; details: DHT 10 nM
Protocol: as §1, §2, §3, §4

[5] = system: GPR158, AR and PSA expression in LNCaP cells; details: DHT 10 nM
Protocol: as §1, §2, §3, §4

| SMILES | increase in cell numbers ([1]; 3 days, normalized for Dox alone on parental cells) [fold] | increase in cell numbers (growth curve) ([1]; at 4, 6 and 8 days vs untreated) | induction of GPR158 protein ([2]; Dox 100 ng/mL, at 4, 6 and 8 days (data not shown)) [fold] | increase in GPR158 protein levels ([2]; Dox 500 ng/mL, 3 days) [fold] | PSA mRNA and protein levels ([3]; PHPEC) | AR protein stabilization ([3]; PHPEC, 12 hrs) | increase of GPR158 mRNA and protein levels ([3]; PHPECs, 24 hrs, 10% CSS) | effect on GPR158 mRNA and protein levels ([4]; C4-2B cells, 10% CSS) | AR protein stabilization ([4]; C4-2B) | PSA mRNA and protein levels ([4]; C4-2B) | increase of GPR158 mRNA and protein levels ([5]; LNCaP cells, 24 hrs, 10% CSS) | PSA mRNA and protein levels ([5]; LNCaP) | AR protein stabilization ([5]; LNCaP, 12 hrs) |
| --- | --- | --- | --- | --- | --- | --- | --- | --- | --- | --- | --- | --- | --- |
| C[C@H]1c2cccc(O)c2C(=O)C2=C(O)[C@]3(O)C(=O)C(C(N)=O)=C(O)[C@@H](N(C)C)[C@@H]3[C@@H](O)[C@@H]21 [Dox, doxycycline] | 2.25 | approximately 2 fold | 3 | ~6 |  |  |  |  |  |  |  |  |  |
| C[C@]12CCC(=O)C[C@@H]1CC[C@@H]1[C@@H]2CC[C@]2(C)[C@@H](O)CC[C@@H]12 [DHT, dihydrotestosterone] |  |  |  |  | increased significantly | AR protein stabilization | 3-4 fold | no effect | not in C4-2B cells | increased significantly | 3-4 fold | increased significantly | AR protein stabilization |
